Measurements as given in the NIST ThermoML archive (doi:10.1016/j.jct.2016.10.023).

Assay: xn = mol fraction of the nth substance listed
Settings: Constant-volume piezometry

CCCCC [pentane] + CCCO
Settings	mass density [kg/m3]
503.15 K, 5980 kPa, Fluid (supercritical or subcritical phases), x1 = 0.8	288.67
503.15 K, 6051 kPa, Fluid (supercritical or subcritical phases), x1 = 0.9	301.99
503.15 K, 6149 kPa, Fluid (supercritical or subcritical phases), x1 = 0.8	299.5
503.15 K, 6295 kPa, Fluid (supercritical or subcritical phases), x1 = 0.9	312.64
503.15 K, 6413 kPa, Liquid, x1 = 0.2	470.91
503.15 K, 6490 kPa, Fluid (supercritical or subcritical phases), x1 = 0.5	373.27
503.15 K, 6551 kPa, Fluid (supercritical or subcritical phases), x1 = 0.8	315.69
503.15 K, 6924 kPa, Fluid (supercritical or subcritical phases), x1 = 0.9	334.38
503.15 K, 7052 kPa, Fluid (supercritical or subcritical phases), x1 = 0.8	334.2
503.15 K, 7423 kPa, Fluid (supercritical or subcritical phases), x1 = 0.8	345.74
503.15 K, 7481 kPa, Fluid (supercritical or subcritical phases), x1 = 0.5	398.56
503.15 K, 7825 kPa, Fluid (supercritical or subcritical phases), x1 = 0.9	354.5
503.15 K, 8266 kPa, Fluid (supercritical or subcritical phases), x1 = 0.8	362.32
503.15 K, 8559 kPa, Fluid (supercritical or subcritical phases), x1 = 0.5	417.68
503.15 K, 10489 kPa, Fluid (supercritical or subcritical phases), x1 = 0.5	441.45
503.15 K, 10609 kPa, Liquid, x1 = 0.2	510.19
503.15 K, 11537 kPa, Fluid (supercritical or subcritical phases), x1 = 0.5	451.78
503.15 K, 12022 kPa, Fluid (supercritical or subcritical phases), x1 = 0.9	407.75
503.15 K, 12689 kPa, Fluid (supercritical or subcritical phases), x1 = 0.8	418.68
503.15 K, 14223 kPa, Fluid (supercritical or subcritical phases), x1 = 0.5	468.71
503.15 K, 18302 kPa, Liquid, x1 = 0.2	547.72
503.15 K, 21559 kPa, Fluid (supercritical or subcritical phases), x1 = 0.8	467.26
503.15 K, 26707 kPa, Fluid (supercritical or subcritical phases), x1 = 0.5	519.99
503.15 K, 30356 kPa, Fluid (supercritical or subcritical phases), x1 = 0.8	496.72
503.15 K, 30587 kPa, Liquid, x1 = 0.2	582.08
503.15 K, 37782 kPa, Liquid, x1 = 0.2	595.68
503.15 K, 41722 kPa, Fluid (supercritical or subcritical phases), x1 = 0.8	521.26
504.15 K, 4315 kPa, Liquid, x1 = 0.2	419.14
508.15 K, 4020 kPa, Gas, x1 = 0.2	114.44
508.15 K, 4961 kPa, Liquid, x1 = 0.2	419.05
510.15 K, 4548 kPa, Liquid, x1 = 0.2	383.7
511.15 K, 4773 kPa, Liquid, x1 = 0.2	391.53
513.15 K, 933 kPa, Gas, x1 = 0.5	15.53
513.15 K, 1283 kPa, Gas, x1 = 0.8	22.54
513.15 K, 1508 kPa, Gas, x1 = 0.2	24.94
513.15 K, 1686 kPa, Gas, x1 = 0.5	30
513.15 K, 1923 kPa, Gas, x1 = 0.8	36.71
513.15 K, 2226 kPa, Gas, x1 = 0.5	40.51
513.15 K, 2615 kPa, Gas, x1 = 0.5	51.12
513.15 K, 2796 kPa, Gas, x1 = 0.8	58.44
513.15 K, 2974 kPa, Gas, x1 = 0.2	53.03
513.15 K, 3284 kPa, Gas, x1 = 0.5	67.55
513.15 K, 3295 kPa, Gas, x1 = 0.8	73.83
513.15 K, 3462 kPa, Gas, x1 = 0.5	72.63
513.15 K, 3488 kPa, Gas, x1 = 0.9	83.42
513.15 K, 3816 kPa, Gas, x1 = 0.2	91.46
513.15 K, 3844 kPa, Gas, x1 = 0.5	88.95
513.15 K, 4033 kPa, Gas, x1 = 0.5	95.89
513.15 K, 4156 kPa, Fluid (supercritical or subcritical phases), x1 = 0.8	106.45
513.15 K, 4165 kPa, Gas, x1 = 0.2	114.41
513.15 K, 4349 kPa, Fluid (supercritical or subcritical phases), x1 = 0.9	123.41
513.15 K, 4538 kPa, Fluid (supercritical or subcritical phases), x1 = 0.9	134.18
513.15 K, 4567 kPa, Fluid (supercritical or subcritical phases), x1 = 0.5	121.95
513.15 K, 4703 kPa, Liquid, x1 = 0.2	350.76
513.15 K, 4837 kPa, Fluid (supercritical or subcritical phases), x1 = 0.5	144.18
513.15 K, 4850 kPa, Fluid (supercritical or subcritical phases), x1 = 0.8	140.37
513.15 K, 4865 kPa, Liquid, x1 = 0.2	378.83
513.15 K, 4965 kPa, Fluid (supercritical or subcritical phases), x1 = 0.9	164.03
513.15 K, 4968 kPa, Fluid (supercritical or subcritical phases), x1 = 0.5	154.56
513.15 K, 4968 kPa, Liquid, x1 = 0.2	383.64
513.15 K, 5032 kPa, Fluid (supercritical or subcritical phases), x1 = 0.8	156.12
513.15 K, 5068 kPa, Fluid (supercritical or subcritical phases), x1 = 0.2	391.49
513.15 K, 5068 kPa, Liquid, x1 = 0.2	391.49
513.15 K, 5086 kPa, Fluid (supercritical or subcritical phases), x1 = 0.5	165.22
513.15 K, 5197 kPa, Fluid (supercritical or subcritical phases), x1 = 0.8	169.87
513.15 K, 5255 kPa, Fluid (supercritical or subcritical phases), x1 = 0.5	182.94
513.15 K, 5265 kPa, Fluid (supercritical or subcritical phases), x1 = 0.8	176.11
513.15 K, 5295 kPa, Fluid (supercritical or subcritical phases), x1 = 0.9	189.54
513.15 K, 5344 kPa, Fluid (supercritical or subcritical phases), x1 = 0.8	180.91
513.15 K, 5373 kPa, Fluid (supercritical or subcritical phases), x1 = 0.5	200.49
513.15 K, 5432 kPa, Fluid (supercritical or subcritical phases), x1 = 0.5	210.33
513.15 K, 5454 kPa, Fluid (supercritical or subcritical phases), x1 = 0.9	202.47
513.15 K, 5473 kPa, Fluid (supercritical or subcritical phases), x1 = 0.8	193.25
513.15 K, 5506 kPa, Fluid (supercritical or subcritical phases), x1 = 0.5	224.16
513.15 K, 5598 kPa, Fluid (supercritical or subcritical phases), x1 = 0.5	241.62
513.15 K, 5618 kPa, Fluid (supercritical or subcritical phases), x1 = 0.5	250.82
513.15 K, 5669 kPa, Fluid (supercritical or subcritical phases), x1 = 0.9	220.79
513.15 K, 5677 kPa, Fluid (supercritical or subcritical phases), x1 = 0.5	259.87
513.15 K, 5710 kPa, Fluid (supercritical or subcritical phases), x1 = 0.8	213.96
513.15 K, 5746 kPa, Fluid (supercritical or subcritical phases), x1 = 0.5	270.69
513.15 K, 5776 kPa, Fluid (supercritical or subcritical phases), x1 = 0.8	219.73
513.15 K, 5792 kPa, Liquid, x1 = 0.2	418.94
513.15 K, 5837 kPa, Fluid (supercritical or subcritical phases), x1 = 0.9	233.18
513.15 K, 5858 kPa, Fluid (supercritical or subcritical phases), x1 = 0.5	282.52
513.15 K, 5880 kPa, Fluid (supercritical or subcritical phases), x1 = 0.9	236.64
513.15 K, 5929 kPa, Fluid (supercritical or subcritical phases), x1 = 0.9	241.05
513.15 K, 5974 kPa, Fluid (supercritical or subcritical phases), x1 = 0.9	244.36
513.15 K, 5983 kPa, Fluid (supercritical or subcritical phases), x1 = 0.8	234.82
513.15 K, 6090 kPa, Fluid (supercritical or subcritical phases), x1 = 0.5	298.82
513.15 K, 6119 kPa, Fluid (supercritical or subcritical phases), x1 = 0.8	245.46
513.15 K, 6286 kPa, Fluid (supercritical or subcritical phases), x1 = 0.8	258.7
513.15 K, 6470 kPa, Fluid (supercritical or subcritical phases), x1 = 0.5	320.16
513.15 K, 6531 kPa, Fluid (supercritical or subcritical phases), x1 = 0.8	272.67
513.15 K, 6531 kPa, Fluid (supercritical or subcritical phases), x1 = 0.9	282.15
513.15 K, 6559 kPa, Fluid (supercritical or subcritical phases), x1 = 0.5	325.44
513.15 K, 6787 kPa, Fluid (supercritical or subcritical phases), x1 = 0.8	288.53
513.15 K, 6884 kPa, Fluid (supercritical or subcritical phases), x1 = 0.9	301.84
513.15 K, 6962 kPa, Fluid (supercritical or subcritical phases), x1 = 0.5	344.73
513.15 K, 7033 kPa, Fluid (supercritical or subcritical phases), x1 = 0.8	299.35
513.15 K, 7191 kPa, Fluid (supercritical or subcritical phases), x1 = 0.9	312.49
513.15 K, 7508 kPa, Fluid (supercritical or subcritical phases), x1 = 0.8	315.53
513.15 K, 7785 kPa, Fluid (supercritical or subcritical phases), x1 = 0.5	373.08
513.15 K, 7943 kPa, Fluid (supercritical or subcritical phases), x1 = 0.9	334.21
513.15 K, 8099 kPa, Fluid (supercritical or subcritical phases), x1 = 0.8	334.03
513.15 K, 8570 kPa, Fluid (supercritical or subcritical phases), x1 = 0.8	345.56
513.15 K, 8766 kPa, Liquid, x1 = 0.2	470.65
513.15 K, 8986 kPa, Fluid (supercritical or subcritical phases), x1 = 0.5	398.35
513.15 K, 9031 kPa, Fluid (supercritical or subcritical phases), x1 = 0.9	354.32
513.15 K, 9551 kPa, Fluid (supercritical or subcritical phases), x1 = 0.8	362.13
513.15 K, 10333 kPa, Fluid (supercritical or subcritical phases), x1 = 0.5	417.46
513.15 K, 12509 kPa, Fluid (supercritical or subcritical phases), x1 = 0.5	441.21
513.15 K, 13550 kPa, Fluid (supercritical or subcritical phases), x1 = 0.2	509.9
513.15 K, 13550 kPa, Liquid, x1 = 0.2	509.9
513.15 K, 13634 kPa, Fluid (supercritical or subcritical phases), x1 = 0.5	451.54
513.15 K, 13786 kPa, Fluid (supercritical or subcritical phases), x1 = 0.9	407.53
513.15 K, 14551 kPa, Fluid (supercritical or subcritical phases), x1 = 0.8	418.46
513.15 K, 16655 kPa, Fluid (supercritical or subcritical phases), x1 = 0.5	468.45
513.15 K, 22117 kPa, Liquid, x1 = 0.2	547.38
513.15 K, 24001 kPa, Fluid (supercritical or subcritical phases), x1 = 0.8	467
513.15 K, 30101 kPa, Fluid (supercritical or subcritical phases), x1 = 0.5	519.68
513.15 K, 33469 kPa, Fluid (supercritical or subcritical phases), x1 = 0.8	496.43
513.15 K, 35193 kPa, Liquid, x1 = 0.2	581.71
513.15 K, 42801 kPa, Liquid, x1 = 0.2	595.3
514.15 K, 4473 kPa, Gas, x1 = 0.2	150.41
514.15 K, 4778 kPa, Liquid, x1 = 0.2	341.42
514.15 K, 4795 kPa, Liquid, x1 = 0.2	350.74
515.15 K, 4522 kPa, Gas, x1 = 0.2	150.4
515.15 K, 4645 kPa, Fluid (supercritical or subcritical phases), x1 = 0.2	175.68
515.15 K, 4818 kPa, Fluid (supercritical or subcritical phases), x1 = 0.2	318.9
516.15 K, 4838 kPa, Fluid (supercritical or subcritical phases), x1 = 0.2	272.45
516.15 K, 4852 kPa, Fluid (supercritical or subcritical phases), x1 = 0.2	290.64
516.15 K, 4872 kPa, Fluid (supercritical or subcritical phases), x1 = 0.2	306.93
516.15 K, 4877 kPa, Fluid (supercritical or subcritical phases), x1 = 0.2	311.17
516.15 K, 4909 kPa, Fluid (supercritical or subcritical phases), x1 = 0.2	318.89
517.15 K, 4912 kPa, Fluid (supercritical or subcritical phases), x1 = 0.2	272.44
517.15 K, 4958 kPa, Fluid (supercritical or subcritical phases), x1 = 0.2	306.92

Liquid, x1 = 0.2
Settings	mass density [kg/m3]
508.65 K	391.58
509.65 K	383.71
510.35 K	378.89
512.85 K	350.77
513.45 K	344.22
513.65 K	341.43
514.95 K	318.91
515.15 K	311.18
515.55 K	306.94
515.95 K	290.64
516.15 K	272.45
